The values that follow come from patent US12661410B2, “Compounds for targeted degradation of RET” (C4 Therapeutics, Inc., priority 2020, dated 2026).

One assay concerns the target T1, RET(KD: 658-1114 G810R) (Homo sapiens, UniProt P07949, G810R).
T1 construct: 658-1114; expressed in transfected cells; host or cells: 293T.165 (293T cells, generated in-house)
T1 sequence (P07949 658-1114 G810R): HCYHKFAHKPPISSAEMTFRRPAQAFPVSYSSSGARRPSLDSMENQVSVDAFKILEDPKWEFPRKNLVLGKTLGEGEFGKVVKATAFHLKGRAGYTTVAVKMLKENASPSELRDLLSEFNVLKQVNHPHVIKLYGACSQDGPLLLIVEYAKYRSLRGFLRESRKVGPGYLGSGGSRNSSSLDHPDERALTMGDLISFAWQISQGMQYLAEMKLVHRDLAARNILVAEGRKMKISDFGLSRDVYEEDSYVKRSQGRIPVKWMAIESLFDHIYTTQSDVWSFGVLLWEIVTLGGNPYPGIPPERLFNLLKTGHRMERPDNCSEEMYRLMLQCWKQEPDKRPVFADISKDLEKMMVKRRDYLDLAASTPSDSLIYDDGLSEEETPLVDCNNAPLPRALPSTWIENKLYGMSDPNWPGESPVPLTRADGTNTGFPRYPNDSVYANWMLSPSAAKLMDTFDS
Description: HiBiT-Degradation, RET G810R degradation assay (Nano-Glo HiBiT Lytic), 293T.165 cells. Format: cell-based. As to conditions: for Emax / DC50: 6.0 hours; for Emax: % remaining protein, read-out: 293T.165 RET(KD: 658-1114 G810R) 6.0 hours (Emax); for DC50: read-out: 293T.165 RET(KD: 658-1114 G810R) 6.0 hours (DC50). The source says:
(§1) Dulbecco's modified Eagle medium (DMEM) no-phenol red media and fetal bovine serum (FBS) were purchased from Gibco (Grand Island, NY, USA). Cell lines ectopically expressing wild-type or G810R RET kinase domain fused with a HiBiT tag were generated in-house (293T. 144 and 293T. 165, respectively). Cell culture flasks and 384-well microplates were acquired from VWR (Radnor, PA, USA). The Nano-Glo® HiBiT Lytic Assay System was purchased from Promega (Madison, WI, USA).
(§2) RET wild-type (WT) and G810R degradation were assessed using the Nano-Glo® HiBiT Lytic assay (Promega, Medison, WI, USA). To determine the effect of degraders on protein levels, cells were plated in 384-well plates and treated with compounds of interest in duplicates for 6 hours using an 11-point half-log dilution series, with the highest dose set at 10 μM. Cell lysis and addition of the Nano-Glo® HiBiT Lytic Assay reagents was then performed. Luminescence signal was measured using an EnVision™ Multimode plate reader (Perkin Elmer, Santa Clara, CA, USA). The half-maximal degradation concentration (DC50) and % remaining protein (Emax) was then derived from the dose-response curves.
A general note: HiBiT is a short tag that completes a luciferase, so light tracks the accessible tagged protein.

The target in another assay is T2, RET (658-1114) (Homo sapiens, UniProt P07949).
T2 construct: 658-1114; expressed in transfected cells; host or cells: 293T.144 (293T cells, generated in-house)
T2 sequence (P07949 658-1114): T1 sequence (P07949 658-1114 G810R) with R153G
Description: HiBiT-Degradation, RET wild-type degradation assay (Nano-Glo HiBiT Lytic), 293T.144 cells. As to conditions: for Emax / DC50: 6.0 hours; for Emax: read-out: 293T.144 RET (658-1114) 6.0 hours (Emax); for DC50: read-out: 293T.144 RET (658-1114) 6.0 hours (DC50). Format: cell-based.
Excerpt: as §1, §2

[1] abbreviates: half-maximal degradation concentration.

Residue numbers refer to the chain shown, from its start. Read-outs that look alike come from different tables or passages of the source.

As a reminder, the Emax is the size of the effect at its maximum, as opposed to the concentration needed. For orientation: DC50 means the concentration giving 50% degradation. Regarding `CC(C)NC(=O)C1(C)CCN(c2ccc(-c3cc(-c4cnn(C5CCC6(CC5)CN(C(=O)CN5CCC(c7ccc(NC8CCC(=O)NC8=O)cc7)CC5)C6)c4)cn4ncc(C#N)c34)cn2)CC1` (stereo not drawn) [Compound 196, 1-(5-(3-cyano-6-(1-(2-(2-(4-(4-((2,6-dioxopiperidin-3-yl)amino)phenyl)piperidin-1-yl)acetyl)-2-azaspiro[3.5]nonan-7-yl)-1H-pyrazol-4-yl)pyrazolo[1,5-a]pyridin-4-yl)pyridin-2-yl)-N-isopropyl-4-methylpiperidine-4-carboxamide], on RET(KD: 658-1114 G810R), the “293T.165 RET(KD: 658-1114 G810R) 6.0 hours (IP) [nM]” value is “++++ (<50 nM = ++++)”. For the same compound, the Emax on RET(KD: 658-1114 G810R) and on RET (658-1114) (% remaining protein) was below 30% throughout. The DC50 at RET(KD: 658-1114 G810R) (setting [1]) is below 0.1 µM; at RET (658-1114) (setting [1]) it was below 0.05 µM. Also, at RET (658-1114), the “293T.144 RET (658-1114) 6.0 hours (IP) [nM]” value (shortened to “293T.144 RET”) is on record as “++++ (<50 nM = ++++)”.
For `CCC1(C(=O)NC(C)C)CCN(c2ccc(-c3nc(-c4cnn(C5CCN(C(=O)CN6C7CCC6CC(c6ccc(NC8CCC(=O)NC8=O)cc6F)C7)CC5)c4)cn4ncc(C#N)c34)cn2)CC1` (stereo not drawn) [Compound 94, 1-[5-[3-cyano-6-[1-[1-[2-[3-[4-[(2,6-dioxo-3-piperidyl)amino]-2-fluoro-phenyl]-8-azabicyclo[3.2.1]octan-8-yl]acetyl]-4-piperidyl]pyrazol-4-yl]pyrazolo[1,5-a]pyrazin-4-yl]-2-pyridyl]-4-ethyl-N-isopropyl-piperidine-4-carboxamide], on RET(KD: 658-1114 G810R), the “293T.165 RET(KD: 658-1114 G810R) 6.0 hours (IP) [nM]” value is reported as “++++ (<50 nM = ++++)”. The Emax at RET(KD: 658-1114 G810R) and on RET (658-1114) (% remaining protein) was below 30% in each case. For the same compound, the DC50 on RET(KD: 658-1114 G810R) (setting [1]) and at RET (658-1114) (setting [1]) was below 0.05 µM each time. Besides, the “293T.144 RET” value at RET (658-1114) is “++++ (<50 nM = ++++)”.
As to `CCC1(C(=O)NC2CCCC2)CCN(c2ccc(-c3nc(-c4cnn([C@H]5CC[C@H](N6CCC(c7ccc(N[C@H]8CCC(=O)NC8=O)cc7F)CC6)CC5)c4)cn4ncc(C#N)c34)cn2)CC1` [Compound 141, 1-[5-[3-cyano-6-[1-[4-[4-[4-[[(3S)-2,6-dioxo-3-piperidyl]amino]-2-fluoro-phenyl]-1-piperidyl]cyclohexyl]pyrazol-4-yl]pyrazolo[1,5-a]pyrazin-4-yl]-2-pyridyl]—N-cyclopentyl-4-ethyl-piperidine-4-carboxamide], on RET(KD: 658-1114 G810R), the “293T.165 RET(KD: 658-1114 G810R) 6.0 hours (IP) [nM]” value is given as “++++ (<50 nM = ++++)”. In addition, the Emax on RET(KD: 658-1114 G810R) and on RET (658-1114) (% remaining protein) was below 30% each time. Also, the DC50 at RET(KD: 658-1114 G810R) (setting [1]) and on RET (658-1114) (setting [1]) was below 0.05 µM each time. Moreover, the “293T.144 RET” value at RET (658-1114) was “++++ (<50 nM = ++++)”.
`CCC1(C(=O)NC(C)C)CCN(c2ccc(-c3nc(-c4cnn(C5CCN(C(=O)CN6CCC(c7ccc(NC8CCC(=O)NC8=O)cc7)CC6)CC5)c4)cn4ncc(C#N)c34)cn2)CC1` (stereo not drawn) [Compound 31, 1-(5-(3-Cyano-6-(1-(1-(2-(4-(4-((2,6-dioxopiperidin-3-yl)amino)phenyl)piperidin-1-yl)acetyl)piperidin-4-yl)-1H-pyrazol-4-yl)pyrazolo[1,5-a]pyrazin-4-yl)pyridin-2-yl)-4-ethyl-N-isopropylpiperidine-4-carboxamide]: at RET(KD: 658-1114 G810R), the Emax was below 30%. The DC50 on RET(KD: 658-1114 G810R) (setting [1]) is below 0.05 µM. Moreover, on RET(KD: 658-1114 G810R) (HiBiT-Degradation), the “293T.165 RET(KD: 658-1114 G810R) 6.0 hours (Emax)” value is “++++ (< 30% = ++++)”, the “293T.165 RET(KD: 658-1114 G810R) 6.0 hours (IP) [nM]” value was “++++ (< 50 nM = ++++)” and the DC50 is below 0.05 µM. In addition, at RET (658-1114) (HiBiT-Degradation), the “293T.144 RET” value is recorded as “++++ (< 50 nM = ++++)”, the DC50 is below 0.05 µM and the Emax is below 30%.
`N#Cc1cnn2cc(-c3cnn(C4CCN(C(=O)CC5(O)CCN(c6ccc(NC7CCC(=O)NC7=O)cc6F)CC5)CC4)c3)nc(-c3ccc(N4CCC5(CC4)OCc4cccnc45)nc3)c12` (stereo not drawn) [Compound 113, 6-[1-[1-[2-[1-[4-[(2,6-dioxo-3-piperidyl)amino]-2-fluoro-phenyl]-4-hydroxy-4-piperidyl]acetyl]-4-piperidyl]pyrazol-4-yl]-4-(6-spiro[5H-furo[3,4-b]pyridine-7,4′-piperidine]-1′-yl-3-pyridyl)pyrazolo[1,5-a]pyrazine-3-carbonitrile]: the “293T.165 RET(KD: 658-1114 G810R) 6.0 hours (IP) [nM]” value on RET(KD: 658-1114 G810R) is on record as “++++ (<50 nM = ++++)”. For the same compound, the Emax at RET(KD: 658-1114 G810R) and at RET (658-1114) (% remaining protein) was below 30% each time. For the same compound, the DC50 at RET(KD: 658-1114 G810R) (setting [1]) and at RET (658-1114) (setting [1]) was below 0.05 µM in each case. For the same compound, the “293T.144 RET” value at RET (658-1114) is given as “++++ (<50 nM = ++++)”.
In the case of `CC(=O)N1CCN(c2ccc(-c3cc(-c4cnn(C5CCN(C(=O)CN6CCC(c7ccc(NC8CCC(=O)NC8=O)cc7)CC6)CC5)c4)cn4ncc(C#N)c34)cn2)CC1` (stereo not drawn) [Compound 42, 4-[6-(4-acetylpiperazin-1-yl)-3-pyridyl]-6-[1-[1-[2-[4-[4-[(2,6-dioxo-3-piperidyl)amino]phenyl]-1-piperidyl]acetyl]-4-piperidyl]pyrazol-4-yl]pyrazolo[1,5-a]pyridine-3-carbonitrile], at RET(KD: 658-1114 G810R), the Emax was below 50%. In addition, the DC50 at RET(KD: 658-1114 G810R) (setting [1]) is below 0.1 µM. Besides, on RET(KD: 658-1114 G810R) (HiBiT-Degradation), the “293T.165 RET(KD: 658-1114 G810R) 6.0 hours (Emax)” value was “+++ (<50% = +++)”, the “293T.165 RET(KD: 658-1114 G810R) 6.0 hours (IP) [nM]” value was “++++ (< 50 nM = ++++)” and the DC50 was below 0.1 µM. Besides, on RET (658-1114) (HiBiT-Degradation), the “293T.144 RET” value is on record as “++++ (< 50 nM = ++++)”, the DC50 was below 0.05 µM and the Emax was below 30%.
As for `CN(C)c1ccc(-c2cc(-c3cnn([C@H]4CC[C@@H](CCN5CCC(c6ccc(NC7CCC(=O)NC7=O)cc6)CC5)CC4)c3)cn3ncc(C#N)c23)cn1` (stereo partly drawn) [Compound 43, 4-[6-(dimethylamino)-3-pyridyl]-6-[1-[(1s,4s)-4-[2-[4-[4-[(2,6-dioxo-3-piperidyl)amino]phenyl]-1-piperidyl]ethyl]cyclohexyl]pyrazol-4-yl]pyrazolo[1,5-a]pyridine-3-carbonitrile], the Emax on RET(KD: 658-1114 G810R) was below 50%. Moreover, the DC50 on RET(KD: 658-1114 G810R) (setting [1]) is below 0.1 µM. For the same compound, on RET(KD: 658-1114 G810R) (HiBiT-Degradation), the “293T.165 RET(KD: 658-1114 G810R) 6.0 hours (Emax)” value is reported as “+++ (<50% = +++)”, the “293T.165 RET(KD: 658-1114 G810R) 6.0 hours (IP) [nM]” value is reported as “++++ (< 50 nM = ++++)” and the DC50 is below 0.1 µM. Further, at RET (658-1114) (HiBiT-Degradation), the “293T.144 RET” value is “++++ (< 50 nM = ++++)”, the DC50 is below 0.05 µM and the Emax was below 30%.
With `COc1ccc(NC2CCN(c3ccc(-c4nc(-c5cnn([C@H]6CC[C@@H](N7CCN(c8c(F)cc(NC9CCC(=O)NC9=O)cc8F)CC7)CC6)c5)cn5ncc(C#N)c45)cn3)CC2)cn1` (single isomer, unassigned) [Compound 203, 6-(1-((1s, 4s)-4-(4-(4-((2,6-Dioxopiperidin-3-yl)amino)-2,6-difluorophenyl)piperazin-1-yl)cyclohexyl)-1H-pyrazol-4-yl)-4-(6-(4-((6-methoxypyridin-3-yl)amino)piperidin-1-yl)pyridin-3-yl)pyrazolo[1,5-a]pyrazine-3-carbonitrile], on RET(KD: 658-1114 G810R), the “293T.165 RET(KD: 658-1114 G810R) 6.0 hours (IP) [nM]” value is given as “++++ (<50 nM = ++++)”. The Emax on RET(KD: 658-1114 G810R) and on RET (658-1114) (% remaining protein) was below 30% in each case. Further, the DC50 on RET(KD: 658-1114 G810R) (setting [1]) and at RET (658-1114) (setting [1]) was below 0.05 µM each time. The “293T.144 RET” value on RET (658-1114) is listed as “++++ (<50 nM = ++++)”.
